Measurements as given in ChEMBL document CHEMBL1201862, “PubChem BioAssay data set” (2004).
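Results reflect a 48-hour exposure of cells in 96-well plates to compound at five concentrations. GI50 = concentration required for 50% inhibition of growth.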 Activity calls are given as the source filed them. No stated cut-off is given here; in the data, active = GI50 up to about 1.1 µM and inactive = higher.

Legend:
Assay in all cases: DTP human tumour cell line panel, 48 h
MDA-MB-231 = test system: MDA-MB-231
SW-620 = test system: SW-620
SF-268 = test system: SF-268
SF-295 = test system: SF-295
UACC-257 = test system: UACC-257
ACHN = test system: ACHN
SR = test system: SR
MDA-MB-435 = test system: MDA-MB-435
NCI-H460 = test system: NCI-H460
Malme-3M = test system: Malme-3M
IGROV-1 = test system: IGROV-1
NCI-H23 = test system: NCI-H23
COLO 205 = test system: COLO 205
RPMI-8226 = test system: RPMI-8226
TK-10 = test system: TK-10
CCRF-CEM = test system: CCRF-CEM
RXF 393 = test system: RXF 393
OVCAR-8 = test system: OVCAR-8
KM12 = test system: KM12
SNB-19 = test system: SNB-19

Row | SMILES | GI50 (MDA-MB-231) | GI50 (SW-620) | GI50 (SF-268) | GI50 (SF-295) | GI50 (UACC-257) | GI50 (ACHN) | GI50 (SR) | GI50 (MDA-MB-435) | GI50 (NCI-H460) | GI50 (Malme-3M) | GI50 (IGROV-1) | GI50 (NCI-H23) | GI50 (COLO 205) | GI50 (RPMI-8226) | GI50 (TK-10) | GI50 (CCRF-CEM) | GI50 (RXF 393) | GI50 (OVCAR-8) | GI50 (KM12) | GI50 (SNB-19)
1 | Clc1nc(Cl)c(Cc2ccccc2)c(Cl)n1 | 3.75 µM (inactive) | 3.09 µM (inactive) | 18.6 µM (inactive) | 14.4 µM (inactive) | > 10 µM (inactive) | 15.7 µM (inactive) | 4.26 µM (inactive) | 4.32 µM (inactive) | > 10 µM (inactive) | 5.35 µM (inactive) | 5.97 µM (inactive) | 8.32 µM (inactive) | 6.46 µM (inactive) | 5.32 µM (inactive) | 18.3 µM (inactive) | 3.27 µM (inactive) | 4.21 µM (inactive) | 4.34 µM (inactive) | 7.87 µM (inactive) | 17.9 µM (inactive)
2 | NCc1ccccc1.O=C(O)NCc1ccccc1 | 10.3 µM (inactive) | 34.8 µM (inactive) | 39.7 µM (inactive) | 31.2 µM (inactive) | 32 µM (inactive) | 35.9 µM (inactive) | 0.682 µM (active) | 31.5 µM (inactive) | 26.5 µM (inactive) | 27.4 µM (inactive) | 26.1 µM (inactive) | 27.5 µM (inactive) | 19.3 µM (inactive) | 12.6 µM (inactive) | 31.4 µM (inactive) | 19.4 µM (inactive) | 38.5 µM (inactive) | 37.1 µM (inactive) | 26.2 µM (inactive) | 40.3 µM (inactive)
3 | COC(=O)C1(CCC(=O)N(C)c2ccccc2)NNC2C(=O)N(c3ccccc3)C(=O)C21 (stereo not given) | > 10 µM (inactive) | > 10 µM (inactive) | > 10 µM (inactive) | > 10 µM (inactive) | > 10 µM (inactive) | > 10 µM (inactive) | > 10 µM (inactive) | > 10 µM (inactive) | > 10 µM (inactive) | > 10 µM (inactive) | > 10 µM (inactive) | > 10 µM (inactive) | > 10 µM (inactive) | > 10 µM (inactive) | > 10 µM (inactive) | > 10 µM (inactive) | > 10 µM (inactive) | > 10 µM (inactive) | > 10 µM (inactive) | > 10 µM (inactive)
